# Laboratory results as given in PMC10682503, “Structural and functional basis of inositol hexaphosphate stimulation of NHEJ through stabilization of Ku-XLF interaction” (Nucleic Acids Research, 2023).
# Tests used:
# [1] = target: T1, Ku-4E (Ku70 H359E-H360E/Ku80 K413E H414E) (Homo sapiens, UniProt P12956+P13010, H359E/H360E/H414E/K413E); assay: nanoDSF thermal stability of Ku-4E; conditions: Ku-4E with DNA
# T1 construct: 10x His-tag with TEV site (same vector as KuFL) (N); made in house; host or cells: Sf21 insect cells
# T1 sequence (P12956 whole entry H359E/H360E): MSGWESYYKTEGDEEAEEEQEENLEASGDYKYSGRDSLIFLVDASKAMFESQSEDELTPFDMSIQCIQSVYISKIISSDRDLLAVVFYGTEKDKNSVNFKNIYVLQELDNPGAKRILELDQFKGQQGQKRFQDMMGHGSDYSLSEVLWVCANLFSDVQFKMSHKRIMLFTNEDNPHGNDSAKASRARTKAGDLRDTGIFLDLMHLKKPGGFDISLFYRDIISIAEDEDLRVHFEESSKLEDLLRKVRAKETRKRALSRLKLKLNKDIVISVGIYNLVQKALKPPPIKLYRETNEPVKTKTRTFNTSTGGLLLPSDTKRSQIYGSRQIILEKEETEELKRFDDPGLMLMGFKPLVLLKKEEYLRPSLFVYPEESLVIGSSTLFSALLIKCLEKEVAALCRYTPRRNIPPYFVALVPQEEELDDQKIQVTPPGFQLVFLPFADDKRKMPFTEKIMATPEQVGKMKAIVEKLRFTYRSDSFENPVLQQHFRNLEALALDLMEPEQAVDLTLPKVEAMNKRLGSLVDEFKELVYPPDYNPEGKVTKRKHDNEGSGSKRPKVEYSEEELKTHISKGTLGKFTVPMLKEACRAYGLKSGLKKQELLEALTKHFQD
# T1 sequence (P13010 whole entry K413E/H414E): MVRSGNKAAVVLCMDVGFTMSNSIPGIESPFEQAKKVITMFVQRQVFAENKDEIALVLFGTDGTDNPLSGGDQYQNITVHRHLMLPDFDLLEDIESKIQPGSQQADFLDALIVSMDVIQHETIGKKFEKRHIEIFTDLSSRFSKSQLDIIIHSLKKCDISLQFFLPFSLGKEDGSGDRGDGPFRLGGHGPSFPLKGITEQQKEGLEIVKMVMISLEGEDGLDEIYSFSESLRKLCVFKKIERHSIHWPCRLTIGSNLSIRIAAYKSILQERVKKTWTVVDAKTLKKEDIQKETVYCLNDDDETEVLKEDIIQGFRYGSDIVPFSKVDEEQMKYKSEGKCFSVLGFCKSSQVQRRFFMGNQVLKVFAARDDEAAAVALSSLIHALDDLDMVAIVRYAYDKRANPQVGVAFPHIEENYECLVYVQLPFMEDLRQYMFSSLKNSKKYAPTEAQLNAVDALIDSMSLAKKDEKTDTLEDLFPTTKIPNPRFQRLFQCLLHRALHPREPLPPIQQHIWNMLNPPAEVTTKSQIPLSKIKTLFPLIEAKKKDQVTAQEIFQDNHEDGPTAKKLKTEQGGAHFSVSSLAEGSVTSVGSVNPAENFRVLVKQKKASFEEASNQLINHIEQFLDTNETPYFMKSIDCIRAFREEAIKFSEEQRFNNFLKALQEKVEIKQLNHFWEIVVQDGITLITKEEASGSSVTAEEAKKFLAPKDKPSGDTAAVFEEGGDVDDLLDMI
# KuFL = target: T2, KuFL (Homo sapiens, UniProt P12956+P13010); assay: nanoDSF thermal stability of KuFL; conditions: in the absence of DNA, increasing IP6 concentrations
# T2 construct: The full-length human Ku heterodimer subunits (Ku70 1–609, Ku80 1–732); 10x His-tag with TEV site (N); made in house; host or cells: Sf21 insect cells (baculovirus, MultiBac)
# T2 sequence (P12956 whole entry): as the sequence (P12956 whole entry H359E/H360E) above, with E359H, E360H counted along it
# T2 sequence (P13010 whole entry): as the sequence (P13010 whole entry K413E/H414E) above, with E413K, E414H counted along it
# Protocol: nano-Differential Scanning Fluorimetry. nanoDSF measurements were performed on a Tycho NT.6 device (NanoTemper) with KuFL dialyzed against buffer 20 mM Tris HCl pH 8, 150 mM NaCl, 5 mM β-mercaptoethanol. We used 9 µL of KuFL at 5 µM in absence or presence of DNA at 7.5 µM to obtain a (1:1.5) molar ratio. Measurements were performed in presence of IP6 concentrations ranging from 0 to 10 µM. Stocks solutions of IP6 and analogues are prepared so that 1 µL of IPs solutions are used in the 10 µL capillary for all concentrations tested. Each point corresponds to an average of three measurements. The temperature of transition that corresponds to the change of environment of the tryptophan is deduced from the first inflexion point of the 330 nm/350 nm ratio versus temperature.
# [2] = target: T3, KuFL (full-length human Ku70–Ku80 heterodimer) (Homo sapiens, UniProt P12956+P13010); assay: Isothermal titration calorimetry (ITC), KuFL with IP6 and IP6 analogues; assay type: binding; conditions: 25 °C, Ku 4 µM in cell, IPs 40 µM in syringe
# T3 construct: The full-length human Ku heterodimer subunits (Ku70 1–609, Ku80 1–732); 10x His-tag with TEV site (N); made in house; host or cells: Sf21 insect cells (baculovirus, MultiBac)
# T3 sequence (P12956 whole entry): as the sequence (P12956 whole entry H359E/H360E) above, with E359H, E360H counted along it
# T3 sequence (P13010 whole entry): as the sequence (P13010 whole entry K413E/H414E) above, with E413K, E414H counted along it
# Protocol: (§1) Purification of Ku full-length (KuFL) for cryo-EM experiments was carried out as described previously ([5]). Expression and purification of KuFL for biophysical experiments was carried out as described previously ([20]). The full-length human Ku heterodimer subunits (Ku70 1–609, Ku80 1–732) were cloned into a Multibac vector ([21]). The construct has a 10× His-tag and a TEV site on the N-terminus of Ku80 and no-tag on Ku70. Protein production was initiated in Sf21 cells by infection with the baculovirus stock at MOI of 5 × 10^−3 and cells were collected 5–6 days after the infection (3–4 days after the proliferation arrest). Cells were sonicated and the supernatant was incubated with Benzonase (300 units for 30 min at 4°C). The Ku heterodimer was purified on a NiNTA-Agarose affinity column (Protino, Macherey Nagel) with a 1 M NaCl wash step to remove DNA excess. The eluted Ku was then bound onto an anion exchange column (Resource Q, Cytiva) equilibrated in 20 mM Tris pH 8.0, 50 mM NaCl, 50 mM KCl, 10 mM β-mercaptoethanol and eluted with a salt gradient. The final yield was about 20 mg of purified heterodimer per litre of culture. KuΔC constructs, heterodimer deleted of its C-terminal region (Ku70 1–544, Ku80 1–551) for X-ray crystallography, Ku mutants, Ku-2E (Ku with mutation in K357E on Ku70 and K481E on Ku80) and Ku-4E (Ku with mutations in H359E and H360E on Ku70 and K413E and H414E on Ku80) were cloned in the same vector and produced following the same protocol as KuFL expressed in Sf21 insect cells.
# Calorimetry. Interactions between KuFL and inositol phosphates (IPs) (IP6 and IP6 analogues) were determined by Isothermal Titration Calorimetry (ITC) using a VP-ITC calorimeter (Malvern). Prior to measurements, all solutions were degassed under vacuum. The reaction cell of the ITC (volume 1.8 mL) was loaded with Ku heterodimers at 4 µM concentration. […] The free energy of binding (ΔG) and the entropy (ΔS) were determined using the classical thermodynamic formula, ΔG = - RT ln(Ka) and ΔG = ΔH - TΔS. […]
# S. cerevisae Ku = tested on: S. cerevisae Ku; parameters: method as in PMID 11953323; conditions: cited from earlier work
# [3] = target: T4, KuΔC (Ku heterodimer deleted of its C-terminal regions) (Homo sapiens, UniProt P12956+P13010); assay: ITC, KuΔC with IP6; assay type: binding
# T4 construct: heterodimer deleted of its C-terminal region (Ku70 1–544, Ku80 1–551); His-tag (10x His with TEV site, same vector as KuFL) (N); made in house; host or cells: Sf21 insect cells
# T4 sequence (P12956 1-544, stated change not applied): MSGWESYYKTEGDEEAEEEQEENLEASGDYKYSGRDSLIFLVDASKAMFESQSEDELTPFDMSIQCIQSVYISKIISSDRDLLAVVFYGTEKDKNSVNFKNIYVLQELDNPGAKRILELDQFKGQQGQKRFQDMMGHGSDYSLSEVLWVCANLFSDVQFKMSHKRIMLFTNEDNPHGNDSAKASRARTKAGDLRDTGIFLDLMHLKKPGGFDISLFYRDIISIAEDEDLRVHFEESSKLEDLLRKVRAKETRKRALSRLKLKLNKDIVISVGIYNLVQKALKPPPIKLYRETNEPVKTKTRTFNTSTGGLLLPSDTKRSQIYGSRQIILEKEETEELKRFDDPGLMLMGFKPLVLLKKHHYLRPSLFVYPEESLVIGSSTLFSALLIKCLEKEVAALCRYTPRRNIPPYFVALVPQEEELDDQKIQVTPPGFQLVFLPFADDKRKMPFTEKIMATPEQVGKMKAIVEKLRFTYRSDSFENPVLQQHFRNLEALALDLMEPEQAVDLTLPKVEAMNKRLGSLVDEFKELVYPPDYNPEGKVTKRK
# T4 sequence (P13010 1-551, stated change not applied): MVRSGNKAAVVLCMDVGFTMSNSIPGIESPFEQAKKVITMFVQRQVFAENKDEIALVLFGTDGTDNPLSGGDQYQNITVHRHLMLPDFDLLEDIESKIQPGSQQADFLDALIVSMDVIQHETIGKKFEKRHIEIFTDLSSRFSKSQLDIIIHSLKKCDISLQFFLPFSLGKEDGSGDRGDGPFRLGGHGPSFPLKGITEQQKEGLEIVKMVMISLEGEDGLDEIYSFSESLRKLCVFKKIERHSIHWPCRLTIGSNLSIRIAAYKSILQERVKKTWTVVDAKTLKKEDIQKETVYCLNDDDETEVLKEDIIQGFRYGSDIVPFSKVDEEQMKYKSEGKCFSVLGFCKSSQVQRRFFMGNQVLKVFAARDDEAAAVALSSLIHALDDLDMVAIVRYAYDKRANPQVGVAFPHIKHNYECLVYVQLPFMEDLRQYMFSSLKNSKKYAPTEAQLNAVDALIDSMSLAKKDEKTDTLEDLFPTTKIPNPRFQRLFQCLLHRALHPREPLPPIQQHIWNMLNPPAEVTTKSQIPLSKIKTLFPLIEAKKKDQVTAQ
# Protocol: as §1, with “The final yield was about 20 mg of purified heterodimer per litre of culture. KuΔC constructs, heterodimer deleted of its C-terminal region (Ku70 1–544, Ku80 1–551) for X-ray crystallography, Ku mutants, Ku-2E (Ku with mutation in K357E on Ku70 and K481E on Ku80) and Ku-4E (Ku with mutations in H359E and H360E on Ku70 and K413E and H414E on Ku80) were cloned in the same vector and produced following the same protocol as KuFL expressed in Sf21 insect cells.” left out
# Calorimetry. Interactions between KuFL and inositol phosphates (IPs) (IP6 and IP6 analogues) were determined by Isothermal Titration Calorimetry (ITC) using a VP-ITC calorimeter (Malvern). […] The free energy of binding (ΔG) and the entropy (ΔS) were determined using the classical thermodynamic formula, ΔG = - RT ln(Ka) and ΔG = ΔH - TΔS. […]
# c-NHEJ = conditions: cited from earlier work
smiles,measurement,setting,value
"O=P(O)(O)O[C@H]1[C@H](OP(=O)(O)O)[C@@H](OP(=O)(O)O)[C@H](OP(=O)(O)O)[C@@H](OP(=O)(O)O)[C@H]1OP(=O)(O)O [IP6, inositol hexaphosphate]",further thermal stabilization by IP6,[1],not further stabilized
same,effect on Ku thermal stability,KuFL,no significant effect
same,Kd,[2],3.5 ± 2.9 nM
same,interaction between S. cerevisae Ku and IP6,S. cerevisae Ku,absence of interactions
same,weaker affinity of KuΔC compared with KuFL,[3],~50 fold
same,Kd,[3]; KuΔC construct,178 ± 12 nM
same,effect on end-joining of a linear plasmid substrate and DNA-PK dependent phosphorylation of XLF,c-NHEJ; human cell extracts,stimulated
same,effect on c-NHEJ,c-NHEJ; human whole-cell extracts,stimulate c-NHEJ
